Like-named read-outs stand apart in the source and are kept apart here.
Legend:
[1] = test system: human breast cancer MCF-7 cell subcutaneous xenograft tumor; format: in vivo; details: for Tumor volume (mm^3) (Day 0): Day 0 (at grouping); for RTV (Day 21) / T/C (%) / TGI (%) / Tumor volume (mm^3) (Day 21): Day 21
Description: (1) In Vivo Pharmacodynamic Study of Breast Cancer MCF-7 Cell Subcutaneous Xenograft Tumor BALB/c Nude Mouse Model
Objective: This study aimed to evaluate the in vivo efficacy of the crystal form C of the compound of formula (I) using a human breast cancer MCF-7 cell subcutaneous xenograft tumor model in nude mice.
Routine digestion with trypsin-EDTA (Gibco) was performed twice a week for passaging.
Cell inoculation: Estrogen pellets (0.36 mg/pellet; IRA) were subcutaneously inoculated into the left dorsum of each mouse. Three days later, 0.2 mL (1×10^7 cells) of MCF-7 cells (mixed with Matrigel; CORNING, volume ratio 1:1) were subcutaneously inoculated into the right dorsum of each mouse. When the average tumor volume reached 188 mm^3, the mice were grouped and the administration of compounds began.
An appropriate amount of the compound of formula (I) was weighed and prepared into 0.1, 0.3, 1, and 3 mg/mL solutions. […] Fulvestrant was used as the commercially available injection Faslodex.
The antitumor efficacy of the compounds was evaluated using Tumor Growth Inhibition (TGI, %) and relative tumor proliferation rate (T/C, %).
The Q value of combined medication index was calculated using the Jin formula. The criteria for judgment were as follows: a Q value of 0.85 to 1.15 indicated […] (+); a Q value>1.15 to 2.0 indicated enhancement (++); a Q value<0.85 to 0.55 indicated antagonism (−); and a Q value<0.55 indicated significant antagonism (−−). The formula was Q=Ea+b/(Ea+Eb−Ea×Eb), where Ea+b was the tumor inhibition rate of the combined medication group, and Ea and Eb were the tumor inhibition rates of the single medication groups, respectively.
Inter-group comparisons were analyzed using one-way ANOVA. […] A p value<0.05 was considered to indicate a significant difference.

[2] = in vivo; cited from earlier work
[3] = test system: breast cancer; details: intramuscular injection; cited from earlier work
[4] = Pharmacokinetic study in rats; format: in vivo; details: both sexes, Sprague-Dawley, rat, plasma
Description: (3) Pharmacokinetic Study in Rats
Objective: To determine the concentration of the test compound in plasma at various time points after intravenous and intragastric administration in male and female Sprague-Dawley rats using the LC/MS/MS method.
An appropriate amount of the sample was weighed and prepared into a 0.2 mg/ml solution, and stirred until a clear solution was obtained, with 20% SBE-β-CD as the vehicle.
Administration: After an overnight fast, the IV group received intravenous administration at a dose of 1 mg/kg; the PO group received intragastric administration at a dose of 2 mg/kg.
For the intravenous injection group, male and female Sprague-Dawley rats were administered the test compound, and blood samples (200 μL) were collected from the jugular vein at 0.0830, 0.250, 0.500, 1.00, 2.00, 4.00, 6.00, 8.00, 24.0, 32.0, and 48.0 hours post-administration. The samples were placed into commercially available anticoagulant tubes pre-filled with EDTA-K2. For the intragastric administration group, after administering the test compound, blood samples (200 μL) were collected from the jugular vein at 0.250, 0.500, 1.00, 2.00, 4.00, 6.00, 8.00, 24.0, 32.0, and 48.0 hours. These samples were also placed into commercially available anticoagulant tubes pre-filled with EDTA-K2. Following centrifugation (3,200 g, 4° C., 10 minutes), the plasma was transferred to pre-chilled centrifuge tubes, flash-frozen in dry ice, and stored in an ultra-low temperature freezer at −60° C. or lower until LC-MS/MS analysis. Animals were allowed to eat 4 hours post-dosing. The concentration of the test compound in the plasma of rats after intravenous and intragastric administration was determined using the LC/MS/MS method.

[5] = Pharmacokinetic study in Beagle dogs; format: in vivo; details: both sexes, dog, plasma, Beagles
Description: (4) Pharmacokinetic Study in Beagle Dogs
Objective: To determine the concentration of the test compound in plasma at various time points after intravenous and intragastric administration in male and female Beagle dogs using the LC/MS/MS method.
An appropriate amount of the sample was weighed and prepared into 0.2 mg/mL and 0.3 mg/mL solutions, stirred until a clear solution was obtained, with 20% SBE-β-CD as the vehicle.
Administration: After an overnight fast, the IV group received intravenous administration at a dose of 0.3 mg/kg; the PO group received intragastric administration at a dose of 1 mg/kg.
For the intravenous injection group, Beagle dogs were administered the test compound, and blood samples (800 μL) were collected from the peripheral vein at 0.25, 0.5, 1, 2, 4, 6, 8, 24, 32, 48, 72, and 96 hours post-administration. The samples were placed into commercially available anticoagulant tubes pre-filled with EDTA-K2. For the intragastric administration group, after administering the test compound, blood samples (800 μL) were collected from the peripheral vein at 0.25, 0.5, 1, 2, 4, 6, 8, 24, 32, 48, 72, and 96 hours. These samples were also placed into commercially available anticoagulant tubes pre-filled with EDTA-K2. Following centrifugation (3,200 g, 2-8° C., 10 minutes), the plasma was transferred to pre-chilled centrifuge tubes, flash-frozen in dry ice, and stored in an ultra-low temperature freezer at −60° C. or lower until LC-MS/MS analysis. Animals were allowed to eat 4 hours post-dosing. The concentration of the test compound in the plasma of Beagle dogs after intravenous and intragastric administration was determined using the LC/MS/MS method.

[6] = Pharmacokinetic study in mice; format: in vivo; details: female, Balb/c, mouse, plasma
Description: (2) Pharmacokinetic Study in Mice
Objective: To determine the concentration of the test compound in plasma at various time points after intravenous and intragastric administration in female Balb/c mice using the LC/MS/MS method. To investigate the pharmacokinetic behavior of the crystal form C of the compound of formula (I) in mice and to evaluate its pharmacokinetic characteristics.
Administration: After an overnight fast, the IV group received intravenous administration at a dose of 5 mg/kg; the PO group received intragastric administration at a dose of 10 mg/kg.
For the intravenous injection group, female Balb/c mice were administered the test compound, and blood samples (30 μL) were collected from the saphenous vein at 0.0833, 0.25, 0.5, 1, 2, 4, 8, and 24 hours post-administration. The samples were placed into commercially available anticoagulant tubes pre-filled with EDTA-K2. For the intragastric administration group, after administering the test compound, blood samples (30 μL) were collected from the jugular vein at 0.25, 0.5, 1, 2, 4, 8, 12, and 24 hours. These samples were also placed into commercially available anticoagulant tubes pre-filled with EDTA-K2. Following centrifugation (3,200 g, 4° C., 10 minutes), the plasma was transferred to pre-chilled centrifuge tubes, flash-frozen in dry ice, and stored in an ultra-low temperature freezer at −60° C. or lower until LC-MS/MS analysis. Animals were allowed to eat 4 hours post-dosing. The concentration of the test compound in the plasma of mice after intravenous and intragastric administration was determined using the LC/MS/MS method.

Structure (SMILES): C[C@]12CC[C@@H]3c4ccc(O)cc4C[C@@H](CCCCCCCCC[S+]([O-])CCCC(F)(F)C(F)(F)F)[C@H]3[C@@H]1CC[C@@H]2O (stereo partly drawn) [Fulvestrant, reference compound]
- DCR % ([1]; 5 mg/mouse, SC, QW): 0%
- Tumor volume (mm^3) (Day 0) ([1]; 5 mg/mouse, SC, QW): 188 ± 12 mm^3
- RTV (Day 21) ([1]; 5 mg/mouse, SC, QW): 3.12 ± 0.31
- T/C (%) ([1]; 5 mg/mouse, SC, QW): 46.9%
- TGI (%) ([1]; 5 mg/mouse, SC, QW): 60.9%
- Tumor volume (mm^3) (Day 21) ([1]; 5 mg/mouse, SC, QW): 593 ± 79 mm^3
- Tumor volume (mm^3) (Day 21) ([1]; 5 mg/mouse, SC, QW, listed as fulvestrant): 593 mm^3
- oral bioavailability [2]: near-zero
- breast cancer patients showing a clinical response [3]: about 50%

Structure (SMILES): CC(=O)c1c(C)c2cnc(Nc3ccc(N4CCNCC4)cn3)nc2n(C2CCCC2)c1=O [Palbociclib, reference compound]
- DCR % ([1]; 25 mg/kg, PO, QD): 12.5%
- ORR % ([1]; 25 mg/kg, PO, QD): 0%
- Tumor volume (mm^3) (Day 0) ([1]; 25 mg/kg, PO, QD): 188 ± 12 mm^3
- RTV (Day 21) ([1]; 25 mg/kg, PO, QD): 4.26 ± 0.51
- T/C (%) ([1]; 25 mg/kg, PO, QD): 64.0%
- TGI (%) ([1]; 25 mg/kg, PO, QD): 42.8%
- Tumor volume (mm^3) (Day 21) ([1]; 25 mg/kg, PO, QD): 781 ± 77 mm^3
- Tumor volume (mm^3) (Day 21) ([1]; 25 mg/kg, PO, QD, listed as palbociclib): 781 mm^3

Structure (SMILES): CS(=O)(=O)O.FCCCN1CC[C@H](Nc2cnc(C3=C(CC(F)(F)F)CCCc4c3ccc3[nH]nc(F)c43)cn2)C1
- AUC(0-t) ([4]; IV, 1 mg/kg): 1.71 µM·h
- clearance ([4]; IV, 1 mg/kg): 22.1 mL/min/kg
- half-life ([4]; IV, 1 mg/kg): 10.6 h
- Vd ([4]; IV, 1 mg/kg, read-out: Vdss): 13.6 L/kg
- AUC(0-t) ([4]; PO, 2 mg/kg): 1.63 µM·h
- Cmax ([4]; PO, 2 mg/kg): 87.7 nM
- bioavailability ([4]; PO, 2 mg/kg): 47.7%
- half-life ([4]; PO, 2 mg/kg): 10.3 h
- AUC(0-t) ([5]; IV, 0.3 mg/kg): 1.31 µM·h
- clearance ([5]; IV, 0.3 mg/kg): 3.8 mL/min/kg
- half-life ([5]; IV, 0.3 mg/kg): 24.2 h
- Vd ([5]; IV, 0.3 mg/kg, read-out: Vdss): 7.48 L/kg
- AUC(0-t) ([5]; PO, 1 mg/kg): 2.27 µM·h
- Cmax ([5]; PO, 1 mg/kg): 61 nM
- bioavailability ([5]; PO, 1 mg/kg): 52%
- half-life ([5]; PO, 1 mg/kg): 21.6 h

Structure (SMILES): FCCCN1CC[C@H](Nc2cnc(C3=C(CC(F)(F)F)CCCc4c3ccc3[nH]nc(F)c43)cn2)C1
- AUC(0-t) ([6]; IV, 5 mg/kg): 5.27 µM·h
- clearance ([6]; IV, 5 mg/kg): 30.2 mL/min/kg
- half-life ([6]; IV, 5 mg/kg): 5.16 h
- Vd ([6]; IV, 5 mg/kg, read-out: Vdss): 11.1 L/kg
- AUC(0-t) ([6]; PO, 10 mg/kg): 5.86 µM·h
- Cmax ([6]; PO, 10 mg/kg): 779 nM
- bioavailability ([6]; PO, 10 mg/kg): 55.4%
- half-life ([6]; PO, 10 mg/kg): 4.72 h
- ORR % ([1]; 1 mg/kg, PO, QD): 0%
- Tumor volume (mm^3) (Day 0) ([1]; 1 mg/kg, PO, QD): 188 ± 12 mm^3
- RTV (Day 21) ([1]; 1 mg/kg, PO, QD): 1.82 ± 0.12
- Tumor volume (mm^3) (Day 21) ([1]; 1 mg/kg, PO, QD): 340 ± 30 mm^3
- DCR % ([1]; 3 mg/kg, PO, QD): 100%
- ORR % ([1]; 3 mg/kg, PO, QD): 0%
- Tumor volume (mm^3) (Day 0) ([1]; 3 mg/kg, PO, QD): 188 ± 13 mm^3
- RTV (Day 21) ([1]; 3 mg/kg, PO, QD): 0.99 ± 0.11
- Tumor volume (mm^3) (Day 21) ([1]; 3 mg/kg, PO, QD): 179 ± 14 mm^3
- Tumor volume (mm^3) (Day 0) ([1]; 10 mg/kg, PO, QD): 188 ± 12 mm^3
- RTV (Day 21) ([1]; 10 mg/kg, PO, QD): 0.75 ± 0.09
- Tumor volume (mm^3) (Day 21) ([1]; 10 mg/kg, PO, QD): 140 ± 18 mm^3
- Tumor volume (mm^3) (Day 0) ([1]; 30 mg/kg, PO, QD): 188 ± 12 mm^3
- RTV (Day 21) ([1]; 30 mg/kg, PO, QD): 0.64 ± 0.07
- Tumor volume (mm^3) (Day 21) ([1]; 30 mg/kg, PO, QD): 121 ± 13 mm^3
- Tolerability in tumor-bearing mice ([1]; 1 to 30 mg/kg, PO, QD): tolerated the crystal form C of the compound of formula (I) well

Reference: patent US12410155B2, “Salt form and crystal form of tetrahydrocyclohepta indazole compound” (Zhejiang Yangli Pharmaceutical Technology Co., Ltd., priority 2021, dated 2025)
